Experiment [1] concerns the target T1, Prostaglandin G/H synthase 2 (Homo sapiens, UniProt P35354).
T1 sequence (P35354 whole entry): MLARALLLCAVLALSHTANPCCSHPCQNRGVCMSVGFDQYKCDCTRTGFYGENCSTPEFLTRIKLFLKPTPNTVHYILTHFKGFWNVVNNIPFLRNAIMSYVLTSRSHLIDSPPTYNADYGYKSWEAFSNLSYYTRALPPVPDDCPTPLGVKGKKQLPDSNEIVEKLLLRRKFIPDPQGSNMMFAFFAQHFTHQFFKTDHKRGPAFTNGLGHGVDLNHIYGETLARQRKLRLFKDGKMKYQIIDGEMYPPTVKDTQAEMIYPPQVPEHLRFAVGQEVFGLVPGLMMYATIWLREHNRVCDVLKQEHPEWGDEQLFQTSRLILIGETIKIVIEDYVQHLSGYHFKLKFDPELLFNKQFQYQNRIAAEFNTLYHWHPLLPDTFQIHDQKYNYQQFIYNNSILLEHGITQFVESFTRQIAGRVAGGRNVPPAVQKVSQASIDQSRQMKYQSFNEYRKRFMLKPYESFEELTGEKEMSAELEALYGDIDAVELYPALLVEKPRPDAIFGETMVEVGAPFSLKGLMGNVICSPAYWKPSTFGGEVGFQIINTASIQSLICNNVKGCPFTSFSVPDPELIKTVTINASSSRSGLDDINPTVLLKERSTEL

The target of experiment [2] is T1, Prostaglandin G/H synthase 2. This is another data set of the same source.
Description: Inhibition of human COX2 in human whole blood
The species named for experiment [3] is Homo sapiens. Put plainly: Ratio of IC50 for human COX1 to IC50 for human COX2.
The species named for experiment [4] is Homo sapiens. Put plainly: Ratio of IC50 for human COX1 to IC50 for human COX2 in human whole blood. Format: tissue-based.

Consider `CS(=O)(=O)c1ccc(-c2nc(NCc3csc4ccccc34)cc(C(F)(F)F)n2)cc1`, for which the figures for the IC50 in experiment [1] and in experiment [2] were 10000 nM and greater than 10000 nM, respectively. For the same molecule, the Ratio IC50 in the experiment listed under Homo sapiens [3] and in the experiment listed under Homo sapiens [4] was greater than 1 each time.
On to `CS(=O)(=O)c1ccc(-c2nc(NCc3ccco3)cc(C(F)(F)F)n2)cc1`, for which the IC50 (as a rule, the midpoint of a concentration-inhibition curve) in experiment [1] is 201 nM; in experiment [2], 140 nM. In addition, the Ratio IC50 was greater than 498 in the experiment listed under Homo sapiens [3] and greater than 497 in the experiment listed under Homo sapiens [4].
Turning to `NS(=O)(=O)c1ccc(-c2nc(NCc3ccsc3)cc(C(F)(F)F)n2)cc1`, the IC50 in experiment [1] was 72 nM; in experiment [2], 51.9 nM. For the same molecule, the results for the Ratio IC50 in the experiment filed under Homo sapiens [3] and in the experiment listed under Homo sapiens [4] were 1390 and greater than 193, respectively.
As for `NS(=O)(=O)c1ccc(-c2nc(NCc3cccs3)cc(C(F)(F)F)n2)cc1`, the IC50 in experiment [1] came to 22.3 nM; in experiment [2] it was 158 nM. The Ratio IC50 in the experiment listed under Homo sapiens [3] was 3530; in the experiment filed under Homo sapiens [4], greater than 634.
Regarding `CS(=O)(=O)c1ccc(-c2nc(NCC3CC=CCC3)cc(C(F)(F)F)n2)cc1` (stereo not given), the half-inhibitory concentration (IC50) in experiment [1] stood at 43.1 nM; in experiment [2] it was 32.9 nM. Also, the Ratio IC50 in the experiment filed under Homo sapiens [3] is greater than 2320; in the experiment listed under Homo sapiens [4], greater than 304.
In the case of `NS(=O)(=O)c1ccc(-c2nc(NCC3CCCCC3)cc(C(F)(F)F)n2)cc1`, the IC50 in experiment [1] worked out at 712 nM; in experiment [2], 803 nM. Besides, the Ratio IC50 is greater than 140 in the experiment filed under Homo sapiens [3] and greater than 124 in the experiment listed under Homo sapiens [4].
As for `NS(=O)(=O)c1ccc(-c2nc(NCc3ccccn3)cc(C(F)(F)F)n2)cc1`, the concentration for half-maximal inhibition (IC50) in experiment [1] is 3000 nM; in experiment [2], greater than 10000 nM. The Ratio IC50 in the experiment listed under Homo sapiens [3] is greater than 33; in the experiment filed under Homo sapiens [4], greater than 10.
In the case of `NS(=O)(=O)c1ccc(-c2nc(NCc3csc4ccccc34)cc(C(F)(F)F)n2)cc1`, the figures for the IC50 in experiment [1] and in experiment [2] were 10000 nM and greater than 10000 nM, respectively. Also, the Ratio IC50 in the experiment filed under Homo sapiens [3] is greater than 10; in the experiment filed under Homo sapiens [4] it was greater than 1.
In the case of `NS(=O)(=O)c1ccc(-c2nc(NCc3cc4ccccc4s3)cc(C(F)(F)F)n2)cc1`, the IC50 was 15.2 nM in experiment [1] and 140 nM in experiment [2]. Also, the values for the Ratio IC50 in the experiment filed under Homo sapiens [3] and in the experiment filed under Homo sapiens [4] were 6570 and greater than 71, respectively.
For the molecule `NS(=O)(=O)c1ccc(-c2nc(NCc3ccco3)cc(C(F)(F)F)n2)cc1`, the IC50 was 14.4 nM in experiment [1] and 2790 nM in experiment [2]. For the same molecule, the Ratio IC50 was greater than 6920 in the experiment filed under Homo sapiens [3] and greater than 3 in the experiment filed under Homo sapiens [4].
`NS(=O)(=O)c1ccc(-c2nc(NCc3ccccc3)cc(C(F)(F)F)n2)cc1`: the IC50 in experiment [1] was 3980 nM; in experiment [2] it was greater than 10000 nM. For the same molecule, the Ratio IC50 was greater than 25 in the experiment filed under Homo sapiens [3] and greater than 5 in the experiment listed under Homo sapiens [4].
Take `CS(=O)(=O)c1ccc(-c2nc(NCc3cccnc3)cc(C(F)(F)F)n2)cc1`: the IC50 in experiment [1] and in experiment [2] was greater than 10000 nM in each case. In addition, the Ratio IC50 in the experiment filed under Homo sapiens [3] and in the experiment filed under Homo sapiens [4] was greater than 1 in each case.
Consider `NS(=O)(=O)c1ccc(-c2nc(NCc3ccncc3)cc(C(F)(F)F)n2)cc1`, for which the IC50 in experiment [1] was 1890 nM; in experiment [2], 3330 nM. Also, the Ratio IC50 in the experiment filed under Homo sapiens [3] was greater than 52; in the experiment listed under Homo sapiens [4], greater than 3.
On to `Cn1cccc1CNc1cc(C(F)(F)F)nc(-c2ccc(S(C)(=O)=O)cc2)n1`, for which the IC50 turned out to be 178 nM in experiment [1] and 28.8 nM in experiment [2]. Also, the Ratio IC50 was greater than 562 in the experiment filed under Homo sapiens [3] and greater than 3470 in the experiment filed under Homo sapiens [4].
Take `CS(=O)(=O)c1ccc(-c2nc(NCC3CCCC3)cc(C(F)(F)F)n2)cc1`: the IC50 in experiment [1] and in experiment [2] was greater than 10000 nM throughout. Also, the Ratio IC50 in the experiment listed under Homo sapiens [3] and in the experiment listed under Homo sapiens [4] was greater than 1 in each case.

Values taken from ChEMBL document CHEMBL1143107 (Bioorg Med Chem, 2008).
